The source of these data is ChEMBL document CHEMBL1143995, “Virtual screening approaches for the identification of non-lipid autotaxin inhibitors” (Bioorg Med Chem, 2008).

Structures are written as SMILES.
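Also: activity read as cleavage of a fluorescent lysophosphatidylcholine analog by autotaxin expressed in the cells.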

For this assay, the target named is Autotaxin (Homo sapiens) (UniProt Q13822). Particulars: MDA-MB-435, at 10 µM.
Description: Inhibition of human autotaxin expressed in MDA-MB-435 cells assessed as fluorescent lysophosphatidyl choline analog hydrolysis at 10 uM
As for `O=C(O)c1ccc(Oc2ccc(C(=O)c3ccc4c(c3)C(=O)N(c3ccccc3C(=O)O)C4=O)cc2)cc1`, the inhibition (commonly the share of the control response that was lost under treatment) is 71%.

As to `O=C(O)c1cc(NC(=O)c2ccc3c(c2)C(=O)N(CC2CCCO2)C3=O)cc(C(=O)O)c1` (stereo not given), the inhibition is 71%.

Compound `CCn1cc(C(=O)O)c(=O)c2cnc(N3CCN(C(=S)Nc4cc(Cl)cc(Cl)c4)CC3)nc21` yielded an inhibition of 0%.

For the compound `Cc1c(N2C(=O)c3ccc(C(=O)c4ccc5c(c4)C(=O)N(c4c(C)n(C)n(-c6ccccc6)c4=O)C5=O)cc3C2=O)c(=O)n(-c2ccccc2)n1C`, the inhibition came to 67%.

Take `O=C(O)c1cc(C(=O)O)cc(N2C(=O)c3ccc(C(=O)c4ccc5c(c4)C(=O)N(c4cc(C(=O)O)cc(C(=O)O)c4)C5=O)cc3C2=O)c1`: the inhibition was determined as 49%.

`O=C(O)c1ccc2c(c1)C(=O)N(c1cccc(N3C(=O)c4ccc(C(=O)O)cc4C3=O)n1)C2=O` showed an inhibition of 89%.

`O=C(O)c1ccc(CN2C(=O)c3ccc(C(=O)c4ccc5c(c4)C(=O)N(Cc4ccc(C(=O)O)cc4)C5=O)cc3C2=O)cc1`: the inhibition worked out at 46%.

`O=C(c1ccc2c(c1)C(=O)N(Cc1ccccc1)C2=O)c1ccc2c(c1)C(=O)N(Cc1ccccc1)C2=O` gave an inhibition of 67%.

In the case of `O=C(c1ccc2c(c1)C(=O)N(c1ccccc1-c1ccccc1)C2=O)c1ccc2c(c1)C(=O)N(c1ccccc1-c1ccccc1)C2=O`, the inhibition stood at 91%.

Consider `Cc1ccc(NC(=S)NC(=O)C2CCCC2)cc1C`, for which the inhibition is 90%.

In the case of `COc1ccc(N2C(=O)c3ccc(C(=O)Nc4cccc(C(=O)O)c4)cc3C2=O)cc1`, the inhibition is 58%.

As for `O=C(O)c1ccc2c(c1)C(=O)N(c1ccc(Oc3ccc([N+](=O)[O-])cc3)cc1)C2=O`, the inhibition was determined as 70%.

Turning to `O=C(O)c1ccc2c(c1)C(=O)N(c1ccc(/N=N/c3ccccc3)cc1)C2=O`, the inhibition amounted to 82%.

In turn, `O=C(O)c1cccc(NC(=O)c2ccc3c(c2)C(=O)N(Cc2cccnc2)C3=O)c1` returned an inhibition of 56%.

Consider `CC(=O)OCCN1C(=O)c2ccc(C(=O)c3ccc4c(c3)C(=O)N(CCOC(C)=O)C4=O)cc2C1=O`, for which the inhibition was 91%.

On to `CCn1c(SCC(=O)Nc2ccc(C(C)=O)cc2)nc2nc3c(cc2c1=O)CCCC3`, for which the inhibition came to 21%.

Compound `O=C(Cc1ccccc1)Nc1cccc(N2C(=O)c3ccc(C(=O)O)cc3C2=O)c1` showed an inhibition of 74%.

The compound `Oc1ccc(/N=N/c2ccccc2Br)cc1/C=N/c1ccc(I)cc1` displayed an inhibition of 87%.

`O=C(O)c1cccc(NC(=O)c2ccc3c(c2)C(=O)N(c2ccccc2)C3=O)c1`: the inhibition worked out at 79%.

`CCn1cc(C(=O)O)c(=O)c2cnc(N3CCN(C(=S)NC(=O)c4c(-c5ccccc5)noc4C)CC3)nc21` displayed an inhibition of 78%.

For the compound `O=C(c1ccc2c(c1)C(=O)N(c1cccc3ccccc13)C2=O)c1ccc2c(c1)C(=O)N(c1cccc3ccccc13)C2=O`, the inhibition is 59%.

The compound `O=C(O)c1ccc2c(c1)C(=O)N(c1ccc(-c3nnc(-c4ccccc4)o3)cc1)C2=O` returned an inhibition of 87%.

In the case of `O=C(NN1C(=O)c2ccc(C(=O)c3ccc4c(c3)C(=O)N(NC(=O)c3ccncc3)C4=O)cc2C1=O)c1ccncc1`, the inhibition amounted to 31%.

`Cc1cc(=O)oc2c(/C=N/c3ccc(/N=N/c4ccccc4)cc3)c(O)ccc12` came in with an inhibition of 91%.

As for `O=C(O)c1ccc2c(c1)C(=O)N(c1ccc(Cl)c(NC(=O)c3ccc4ccccc4c3O)c1)C2=O`, the inhibition is 86%.

On to `Oc1cccc(/C=N/c2ccc(/N=N/c3ccccc3)cc2)c1O`, for which the inhibition turned out to be 86%.

The compound `CC(=O)OCCCN1C(=O)c2ccc(C(=O)c3ccc4c(c3)C(=O)N(CCCOC(C)=O)C4=O)cc2C1=O` showed an inhibition of 58%.

`CC(=O)Oc1ccc(N2C(=O)c3ccc(C(=O)c4ccc5c(c4)C(=O)N(c4ccc(OC(C)=O)cc4C(=O)O)C5=O)cc3C2=O)c(C(=O)O)c1` registered an inhibition of 53%.

`O=C(c1ccc2c(c1)C(=O)N(c1ccc(Br)cc1)C2=O)c1ccc2c(c1)C(=O)N(c1ccc(Br)cc1)C2=O`: the inhibition came to 93%.

With `O=C(NC1c2ccccc2Oc2ccccc21)c1ccc(C(=O)NC2c3ccccc3Oc3ccccc32)cc1`, the inhibition is 91%.

The compound `O=C(O)c1ccc(Oc2ccc(C(=O)c3ccc4c(c3)C(=O)N(c3ccc([N+](=O)[O-])cc3)C4=O)cc2)cc1` returned an inhibition of 90%.

On to `Cc1ccnc(N2C(=O)c3ccc(C(=O)c4ccc5c(c4)C(=O)N(c4cc(C)ccn4)C5=O)cc3C2=O)c1`, for which the inhibition is 91%.

The compound `CCCCN1C(=O)c2ccc(C(=O)Nc3cc(C(=O)O)cc(C(=O)O)c3)cc2C1=O` displayed an inhibition of 89%.

`CCn1cc(C(=O)O)c(=O)c2cnc(N3CCN(C(=S)NC(CC(=O)OC)C(=O)OC)CC3)nc21` (stereo not given) showed an inhibition of 62%.

For `CCCCOC(=O)c1ccccc1N1C(=O)c2ccc(C(=O)c3ccc4c(c3)C(=O)N(c3ccccc3C(=O)OCCCC)C4=O)cc2C1=O`, the inhibition came to 87%.

`CCOc1ccccc1N1C(=O)c2ccc(C(=O)c3ccc4c(c3)C(=O)N(c3ccccc3OCC)C4=O)cc2C1=O` returned an inhibition of 86%.

Take `COCC(=O)N1N=C(c2cccc(NS(C)(=O)=O)c2)CC1c1cccc([N+](=O)[O-])c1` (stereo not given): the inhibition is 85%.

`CCS(=O)(=O)N1N=C(c2ccc(NS(C)(=O)=O)cc2)CC1c1ccc(OC)cc1` (stereo not given) displayed an inhibition of 89%.

As to `O=C(O)c1cccc(NC(=O)c2ccc3c(c2)C(=O)N(C2CCCCC2)C3=O)c1`, the inhibition was 55%.

On to `CC(C)(C)c1ccc(C(=O)NC(=S)N2CCCC2)cc1`, for which the inhibition was found to be 76%.

Turning to `Cc1cc(=O)oc2cc(OCC(=O)NC(CC(=O)O)C(=O)O)ccc12` (stereo not given), the inhibition amounted to 85%.

With `COC(=O)c1ccc(N2C(=O)c3ccc(C(=O)c4ccc5c(c4)C(=O)N(c4ccc(C(=O)OC)cc4)C5=O)cc3C2=O)cc1`, the inhibition is 65%.

`Cc1ccc(/N=N/c2cc(C)ccc2NC(=O)c2ccc3c(c2)C(=O)N(N2C(=O)c4ccccc4C2=O)C3=O)cc1` displayed an inhibition of 81%.

`O=C(O)c1cn(C2CC2)c2cc(N3CCN(C(=S)Nc4ccc5c(c4)OCCO5)CC3)c(F)cc2c1=O` yielded an inhibition of 91%.

In turn, `CCCCCCCOC(=O)c1ccc(N2C(=O)c3ccc(C(=O)c4ccc5c(c4)C(=O)N(c4ccc(C(=O)OCCCCCCC)cc4)C5=O)cc3C2=O)cc1` registered an inhibition of 58%.

`Cc1ccc(C(=O)O)cc1N1C(=O)c2ccc(C(=O)c3ccc4c(c3)C(=O)N(c3cc(C(=O)O)ccc3C)C4=O)cc2C1=O` had an inhibition of 83%.

In the case of `O=C(O)c1cc(NC(=O)c2ccc3c(c2)C(=O)N(Cc2cccnc2)C3=O)cc(C(=O)O)c1`, the inhibition was 86%.

For the compound `O=C(O)c1ccc(Oc2ccc(C(=O)c3ccc4c(c3)C(=O)N(c3cccc5ccccc35)C4=O)cc2)cc1`, the inhibition was determined as 31%.

Turning to `CC(C)C(=O)NC(=S)Nc1ccc(N2CCOCC2)cc1`, the inhibition stood at 80%.

The compound `CC(=O)Nc1ccc(N2C(=O)c3ccc(C(=O)c4ccc5c(c4)C(=O)N(c4ccc(NC(C)=O)cc4)C5=O)cc3C2=O)cc1` had an inhibition of 59%.

For the compound `O=C(Nc1ccc(O)c(C(=O)O)c1)c1ccc2c(c1)C(=O)N(CC1CCCO1)C2=O` (stereo not given), the inhibition came to 67%.

Turning to `Cc1ccc(/N=N/c2cc(C)ccc2NC(=O)c2ccc(Oc3ccc(C(=O)Nc4ccc(C)cc4/N=N/c4ccc(C)cc4)cc3)cc2)cc1`, the inhibition turned out to be 93%.

Take `O=C(O)c1ccc(Oc2ccc(C(=O)c3ccc4c(c3)C(=O)N(c3ccc(O)cc3)C4=O)cc2)cc1`: the inhibition was 62%.

As for `O=C(c1ccc2c(c1)C(=O)N(N1C(=O)c3ccccc3C1=O)C2=O)c1ccc2c(c1)C(=O)N(N1C(=O)c3ccccc3C1=O)C2=O`, the inhibition came to 90%.

The compound `O=C(O)c1cccc(NC(=O)c2ccc3c(c2)C(=O)N(c2nccs2)C3=O)c1` yielded an inhibition of 71%.

The compound `O=C(Cc1ccccc1)Nc1cc(N2C(=O)c3ccc(C(=O)O)cc3C2=O)ccc1Cl` had an inhibition of 74%.

`O=C(O)c1ccc2c(c1)C(=O)N(c1cccc(-c3nc4ccccc4c(=O)o3)c1)C2=O`: the inhibition was 71%.

The compound `Cc1c(NS(=O)(=O)CC23CCC(CC2=O)C3(C)C)c(=O)n(-c2ccccc2)n1C` (stereo not given) registered an inhibition of 88%.

Compound `CCn1cc(C(=O)O)c(=O)c2cc(F)c(N3CCN(C(=S)NC4CC5CCC4C5)CC3)cc21` (stereo not given) had an inhibition of 83%.

On to `O=C(O)c1ccc2c(c1)C(=O)N(c1ccc(C(=O)OCC(=O)c3ccccc3)cc1)C2=O`, for which the inhibition turned out to be 71%.

`O=C(/C=C/c1cccc(N2C(=O)c3ccc(C(=O)c4cccc([N+](=O)[O-])c4)cc3C2=O)c1)c1ccccc1` displayed an inhibition of 90%.

`O=S(=O)(O)c1cc(O)c2c(/N=N/c3c(S(=O)(=O)O)cc4cc(S(=O)(=O)O)cc(O)c4c3O)cc(S(=O)(=O)O)cc2c1` yielded an inhibition of 85%.

Turning to `CC(=O)Nc1ccc(/N=N/c2c(S(=O)(=O)O)cc3cc(NC(=O)Nc4ccc5c(O)c(/N=N/c6ccccc6)c(S(=O)(=O)O)cc5c4)ccc3c2O)cc1`, the inhibition turned out to be 71%.

`O=C(O)c1ccc2c(c1)C(=O)N(c1cccc(C(=O)Nc3cccc(Cl)c3)c1)C2=O`: the inhibition turned out to be 48%.

The compound `Cc1ccc(N2C(=O)c3ccc(C(=O)c4ccc5c(c4)C(=O)N(c4ccc(C)cc4C(=O)O)C5=O)cc3C2=O)c(C(=O)O)c1` showed an inhibition of 70%.

`O=C(O)c1cccc(NC(=O)c2ccc3c(c2)C(=O)N(c2ccc(/N=N/c4ccccc4)cc2)C3=O)c1` gave an inhibition of 45%.

On to `CCn1cc(C(=O)O)c(=O)c2cnc(N3CCN(C(=S)Nc4cc5oc6ccccc6c5cc4OC)CC3)nc21`, for which the inhibition worked out at 88%.

Compound `Cc1ccccc1NC(=O)c1cccc(N2C(=O)c3ccc(C(=O)O)cc3C2=O)c1` came in with an inhibition of 79%.

Consider `CC(=O)Oc1cccc(N2C(=O)c3ccc(C(=O)c4ccc5c(c4)C(=O)N(c4cccc(OC(C)=O)c4)C5=O)cc3C2=O)c1`, for which the inhibition worked out at 80%.

Consider `O=C(/C=C/c1cccs1)NC(=S)N1CCCCCC1`, for which the inhibition was determined as 88%.
